According to PMC12188386, “Selective CBP/EP300 Bromodomain Inhibitors: Novel Epigenetic Tools to Counter TNF-α-Driven Inflammation” (JACS Au, 2025):
Converted amounts (≈) assume the structure as drawn.

What was measured:
BRD4(1) = BRD4(1) (Homo sapiens, UniProt O60885); test: BROMOscan bromoKdELECT; type: binding; details: commercial Bromoscan assay
Method: (§1) was used as the calibration curve. To obtain saturated solutions of the compounds of interest, in duplicates 4.4 µL of a 10 or 5 mM stock in DMSO was added to 436 µL Buffer (PBS, pH = 7.4), to give a final concentration of 100 or 50 µM. Samples were incubated on a shaker (500 rpm) at 37°C for 90 minutes and then filtered (Millex-GV 13 mm, 0.22 µm). 304 µL of the filtrate was mixed with 76 µL of acetonitrile on a dilution plate, from which 350 µL was transferred to a UV-plate and UV-absorption was read using a SpectraMax M5 (Molecular devices). The absorbance was blank-corrected and compared to the calibration curve to […]
(§2) solubility. The wavelengths used for the calibration curve are available in Table S4.
Sample preparation in CAPTISOL® […]
(§3) lower solubility (2) compounds respectively in a 12.5 w/v% CAPTISOL® solution in water. In a precisely tared vial, required amounts of compounds and CAPTISOL® were weighed out as solids. Based on the known density of 12.5 % CAPTISOL® solution (d = 1.05755 g/mL at 25 °C), the precise weight of the resulting solution and so the required amount of water by weight was calculated. The water was added portion wise with agitation, vortexing and sonication cycles in between additions. The saturated solutions were then filtered (Millex-GV 13 mm, 0.22 µm). In duplicates, aliquots of the filtrates were taken and diluted with blank 12.5 % CAPTISOL® water solution in either a 1:14 (higher sol. compounds) or 1:7 (lower sol. compounds) ratio, 350 µL was transferred to a 96-Well Plate (Greiner, UV-star) then UV absorption (240-400 nm, 10 nm steps) was measured using a SpectraMax M5 (Molecular devices). […] The calculated concentrations are available in Table S4. […]
The bromodomain concentration in the eluates was measured by qPCR.
Test compounds were prepared as 1000X stocks in DMSO and distributed by acoustic transfer (non-contact dispensing). […] KDs were determined using an 11-point 3-fold compound dilution series with one DMSO control point, and were calculated with a standard dose-response curve using the Hill equation: […]

kinetic solubility = type: physicochemical; details: PBS buffer, aqueous buffer, kinetic from dmso stock, PBS pH 7.4, 37°C, ± st. dev. between technical replicates, read-out: Kin. Sol.
Method: Starting from an initial concentration of 100, 50 or 20 µM, a 2-fold serial dilution of the compound (10 mM stock in DMSO) was prepared in a mixture of ACN/Buffer (PBS, pH = 7.4) 2:8, with 1% DMSO. 350 µL was transferred to a 96-Well Plate (Greiner, UV-star) then UV absorption (240-400 nm, 10 nm steps) was measured. The absorption was blank-corrected and plotted against concentration. The wavelength (λ) providing the best fitting straight line […]
as §1, §2
Based on the known density of 12.5 % CAPTISOL® solution (d = 1.05755 g/mL at 25 °C), the precise weight of the resulting solution and so the required amount of water by weight was calculated. The water was added portion wise with agitation, vortexing and sonication cycles in between additions. The saturated solutions were then filtered (Millex-GV 13 mm, 0.22 µm). In duplicates, aliquots of the filtrates were taken and diluted with blank 12.5 % CAPTISOL® water solution in either a 1:14 (higher sol. compounds) or 1:7 (lower sol. compounds) ratio, 350 µL was transferred to a 96-Well Plate (Greiner, UV-star) then UV absorption (240-400 nm, 10 nm steps) was measured using a SpectraMax M5 (Molecular devices). The absorption was blank-corrected, compared to the calibration curve obtained during the solubility measurement method above and finally corrected for the dilution ratio to obtain the compound concentration in the saturated 12.5 % CAPTISOL® solution. The calculated concentrations are available in Table S4.
BROMOscan™ assays (provided by Eurofins DiscoverX, US)1,2 […]
coli host derived from the BL21 strain. E. coli were grown to log-phase and infected with T7 phage from a frozen stock (multiplicity of infection = 0.4) and incubated with shaking at 32°C until lysis (90-150 minutes). The lysates were centrifuged (5,000 x g) and filtered (0.2µm) to remove cell debris. Streptavidin-coated magnetic beads were treated with biotinylated small molecule or acetylated peptide ligands for 30 minutes at room temperature to generate affinity resins for bromodomain assays. The liganded beads were blocked with excess biotin and washed with blocking buffer (SeaBlock (Pierce), 1 % BSA, 0.05 % Tween 20, 1 mM DTT) to remove unbound ligand and to reduce non specific phage binding. Binding reactions were assembled by combining bromodomains, liganded affinity beads, and test compounds (see […]
Sodium azide, 7.4 mM DTT). All reactions were performed in polypropylene 384-well plates in a final volume of 0.02 mL. The assay plates were incubated at room temperature with […]
20). The beads were then resuspended in elution buffer (1x PBS, 0.05% Tween 20, 2 µM non-

panel of 32 bromodomains = test: bromoMAX BROMOscan panel; type: binding; details: 1 µM
Method: as §1
solubility. […]
as §3, with “In a precisely tared vial, required amounts of compounds and CAPTISOL® were weighed out as solids.” left out, “The water was added portion wise with agitation, vortexing and sonication cycles in between additions. The saturated solutions were then filtered (Millex-GV 13 mm, 0.22 µm).” left out
The bromodomain concentration in the eluates was measured by qPCR. […]

| Kd (BRD4(1)) [µM] | solubility kinetic at 90 min (kinetic solubility) [µM] | SMILES | selectivity over BRD4(1) and a broader panel of BRD-containing proteins (panel of 32 bromodomains) |
| --- | --- | --- | --- |
| 5.8 | 22.2 ± 1.3 (≈ 9.53 µg/mL) | CC(=O)Nc1cc(NC(=O)c2ccco2)cc(C(=O)Nc2cccc3nnc(C)cc23)c1 [Compound 1] |  |
| 5.1 | 69.7 ± 0.6 (≈ 31.8 µg/mL) | Cc1cc2c(NC(=O)c3cc(NC(=O)[C@H]4CCCO4)cc(-c4ccn(C)n4)c3)cccc2nn1 [Compound 5] | highly selective |

| SMILES | Kd (BRD4(1)) [µM] | solubility kinetic at 90 min (kinetic solubility) [µM] | selectivity over BRD4(1) and a broader panel of BRD-containing proteins (panel of 32 bromodomains) |
| --- | --- | --- | --- |
| Cc1cc2c(NC(=O)c3cc(NC(=O)c4ccco4)cc(-c4ccn(C)n4)c3)cccc2nn1 [Compound 2] | 3.7 | 3.2 ± 1.3 (≈ 1.45 µg/mL) | highly selective |
